Among the data in US9242987B2, “Heterocyclyl pyrazolopyrimidine analogues as JAK inhibitors” (Cellzome Limited, priority 2009, dated 2016) are IC50 values, retold here.

As usually defined, the IC50 is the concentration that gives 50% inhibition. High values mean lower potency, low ones higher potency.

For one assay, the target named is T1, JAK2 (Homo sapiens, UniProt O60674).
T1 construct: endogenous in cells; host or cells: Mixed Molt4/Ramos lysate (1:2)
As to the kind of experiment: Kinobeads assay, JAK2. The assay is classed as binding. The note with it: mixed Molt4/Ramos cell lysate, dot blot detection. Put shortly:
(§1)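 Lysate from Molt4 and Ramos cells combined 1:2 at 10 mg/mL total protein met test compound and an aminopyrido-pyrimidine affinity matrix for 3 h in the cold. Captured JAK2 and JAK3, after elution, were measured by specific-antibody dot blot on an infrared system; dose-response curves yielded IC50.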

A further assay addresses T2, JAK3 (Homo sapiens, UniProt P52333).
T2 construct: endogenous in cells; host or cells: Mixed Molt4/Ramos lysate (1:2)
T2 sequence (P52333 1-1124): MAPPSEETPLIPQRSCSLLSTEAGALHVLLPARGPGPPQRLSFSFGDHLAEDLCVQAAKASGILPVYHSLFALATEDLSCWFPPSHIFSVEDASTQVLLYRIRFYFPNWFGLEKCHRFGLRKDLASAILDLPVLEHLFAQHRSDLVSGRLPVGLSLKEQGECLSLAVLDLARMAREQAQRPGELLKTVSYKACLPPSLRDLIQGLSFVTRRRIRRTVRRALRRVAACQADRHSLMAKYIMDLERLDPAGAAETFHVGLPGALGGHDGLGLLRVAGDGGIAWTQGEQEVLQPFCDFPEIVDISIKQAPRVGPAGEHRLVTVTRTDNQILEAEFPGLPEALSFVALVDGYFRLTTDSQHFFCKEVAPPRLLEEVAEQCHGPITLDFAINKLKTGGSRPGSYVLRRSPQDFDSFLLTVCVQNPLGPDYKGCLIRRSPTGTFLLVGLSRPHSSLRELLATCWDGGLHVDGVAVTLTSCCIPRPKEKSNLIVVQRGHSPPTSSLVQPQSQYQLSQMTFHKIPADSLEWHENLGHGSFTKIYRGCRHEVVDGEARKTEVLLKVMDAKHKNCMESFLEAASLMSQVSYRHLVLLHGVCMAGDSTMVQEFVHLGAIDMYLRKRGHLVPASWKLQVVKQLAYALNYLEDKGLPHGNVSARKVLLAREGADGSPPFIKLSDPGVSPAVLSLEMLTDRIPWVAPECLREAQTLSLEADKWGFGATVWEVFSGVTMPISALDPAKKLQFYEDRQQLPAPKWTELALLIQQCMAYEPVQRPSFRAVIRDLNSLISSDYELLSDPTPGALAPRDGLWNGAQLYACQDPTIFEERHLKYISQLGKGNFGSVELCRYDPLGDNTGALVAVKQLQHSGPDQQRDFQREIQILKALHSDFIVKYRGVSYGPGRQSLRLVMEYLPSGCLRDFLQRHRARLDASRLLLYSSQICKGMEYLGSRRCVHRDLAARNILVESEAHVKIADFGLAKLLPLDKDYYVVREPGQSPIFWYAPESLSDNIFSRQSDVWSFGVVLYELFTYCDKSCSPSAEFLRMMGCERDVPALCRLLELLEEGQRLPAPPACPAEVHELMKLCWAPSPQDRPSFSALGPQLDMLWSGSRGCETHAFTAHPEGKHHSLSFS
Briefly: Kinobeads assay, JAK3. The class given is binding. Particulars: mixed Molt4/Ramos cell lysate, dot blot detection. Put shortly: as §1

T1 sequence (O60674 whole entry): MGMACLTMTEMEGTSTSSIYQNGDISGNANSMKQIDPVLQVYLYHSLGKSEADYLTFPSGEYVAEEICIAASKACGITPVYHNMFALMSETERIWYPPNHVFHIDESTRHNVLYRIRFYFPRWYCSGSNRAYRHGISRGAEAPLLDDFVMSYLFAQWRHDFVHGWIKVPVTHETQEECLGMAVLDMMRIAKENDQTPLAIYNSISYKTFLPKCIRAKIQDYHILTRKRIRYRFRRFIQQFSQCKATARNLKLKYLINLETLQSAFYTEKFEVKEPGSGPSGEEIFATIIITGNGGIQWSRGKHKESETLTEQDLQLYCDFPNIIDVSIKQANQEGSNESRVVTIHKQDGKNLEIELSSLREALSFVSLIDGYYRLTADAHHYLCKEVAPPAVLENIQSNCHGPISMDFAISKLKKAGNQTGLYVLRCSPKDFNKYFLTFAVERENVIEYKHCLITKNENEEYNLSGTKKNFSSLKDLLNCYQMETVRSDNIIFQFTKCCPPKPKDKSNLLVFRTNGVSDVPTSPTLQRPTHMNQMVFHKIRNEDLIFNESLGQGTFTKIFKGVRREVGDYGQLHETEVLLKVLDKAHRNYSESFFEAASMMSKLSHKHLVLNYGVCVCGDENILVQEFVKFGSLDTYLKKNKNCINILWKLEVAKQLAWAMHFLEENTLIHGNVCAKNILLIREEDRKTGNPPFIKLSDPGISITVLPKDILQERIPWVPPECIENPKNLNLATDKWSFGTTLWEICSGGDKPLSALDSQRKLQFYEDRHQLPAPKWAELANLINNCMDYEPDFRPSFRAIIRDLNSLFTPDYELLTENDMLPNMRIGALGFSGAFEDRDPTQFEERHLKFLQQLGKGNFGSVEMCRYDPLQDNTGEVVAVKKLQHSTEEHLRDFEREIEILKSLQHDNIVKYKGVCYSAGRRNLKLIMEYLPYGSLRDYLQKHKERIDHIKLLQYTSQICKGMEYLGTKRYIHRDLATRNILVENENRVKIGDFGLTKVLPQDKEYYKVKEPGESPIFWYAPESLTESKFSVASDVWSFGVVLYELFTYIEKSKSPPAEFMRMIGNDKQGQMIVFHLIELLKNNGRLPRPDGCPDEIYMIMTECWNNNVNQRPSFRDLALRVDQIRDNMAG

`CC(C)S(=O)(=O)Nc1cccc(Cn2ncc3cnc(Nc4cnn(C)c4)nc32)c1` [Example 141, N-(3-((6-((1-Methyl-1H-pyrazol-4-yl)amino)-1H-pyrazolo[3,4-d]pyrimidin-1-yl)methyl)phenyl)propane-2-sulfonamide]: the concentration for half-maximal inhibition (IC50) against JAK2 is at least 10000 nM; against JAK3 it was 100 to 1000 nM.
The like results for `Cn1cc(Nc2ncc3cnn(Cc4c(F)cccc4NS(C)(=O)=O)c3n2)cn1` [Example 142] were, in that order, 100 to 1000 nM and below 100 nM.
Consider `Fc1ccccc1Cn1ncc2cnc(Nc3cnn(CCN4CCCCC4)c3)nc21` [Example 143, 1-(2-Fluorobenzyl)-N-(1-(2-(piperidin-1-yl)ethyl)-1H-pyrazol-4-yl)-1H-pyrazolo[3,4-d]pyrimidin-6-amine], for which the half-maximal inhibitory concentration (IC50) at JAK2 was 1000 to 10000 nM; against JAK3 it was below 100 nM.
Consider `Fc1ccccc1Cn1ncc2cnc(Nc3cnn(CCCN4CCCCC4)c3)nc21` [Example 144, 1-(2-Fluorobenzyl)-N-(1-(3-(piperidin-1-yl)propyl)-1H-pyrazol-4-yl)-1H-pyrazolo[3,4-d]pyrimidin-6-amine], for which the half-maximal inhibitory concentration (IC50) was 100 to 1000 nM against JAK2 and below 100 nM against JAK3.
`Fc1ccccc1Cn1ncc2cnc(Nc3cnn(CCCN4CCOCC4)c3)nc21` [Example 145, 1-(2-Fluorobenzyl)-N-(1-(3-morpholinopropyl)-1H-pyrazol-4-yl)-1H-pyrazolo[3,4-d]pyrimidin-6-amine]: the concentration for half-maximal inhibition (IC50) against JAK2 is 100 to 1000 nM; against JAK3, below 100 nM.
The like results for `Cn1cc(Nc2ncc3cnn(-c4cccc(C(=O)N5CCOCC5)c4)c3n2)cn1` [Example 146, (3-(6-((1-Methyl-1H-pyrazol-4-yl)amino)-1H-pyrazolo[3,4-d]pyrimidin-1-yl)phenyl)(morpholino)methanone] were, in that order, 1000 to 10000 nM and 100 to 1000 nM.
The like results for `Cn1cc(Nc2ncc3cnn(-c4cccc(C(=O)NCCO)c4)c3n2)cn1` [Example 147, N-(2-Hydroxyethyl)-3-(6-((1-methyl-1H-pyrazol-4-yl)amino)-1H-pyrazolo[3,4-d]pyrimidin-1-yl)benzamide] were, in that order, at least 10000 nM and 100 to 1000 nM.
The like results for `Cn1cc(Nc2ncc3cnn(-c4ccc(C(=O)NCCO)cc4)c3n2)cn1` [Example 148, N-(2-Hydroxyethyl)-4-(6-((1-methyl-1H-pyrazol-4-yl)amino)-1H-pyrazolo[3,4-d]pyrimidin-1-yl)benzamide] were, in that order, 1000 to 10000 nM and 100 to 1000 nM.
In the case of `CN1CCN(C(=O)c2ccc(-n3ncc4cnc(Nc5cnn(C)c5)nc43)cc2)CC1` [Example 149, (4-(6-((1-Methyl-1H-pyrazol-4-yl)amino)-1H-pyrazolo[3,4-d]pyrimidin-1-yl)phenyl)(4-methylpiperazin-1-yl)methanone], the IC50 fell in the range of 1000 to 10000 nM against JAK2 and 100 to 1000 nM at JAK3.
The like results for `Cc1nn(CC(F)F)cc1Nc1ncc2cnn(Cc3cc(F)ccc3F)c2n1` [Example 150, 1-(2,5-Difluorobenzyl)-N-(1-(2,2-difluoroethyl)-3-methyl-1H-pyrazol-4-yl)-1H-pyrazolo[3,4-d]pyrimidin-6-amine] were, in that order, 1000 to 10000 nM and below 100 nM.
As for `Cc1nn(CC(F)F)cc1Nc1ncc2cnn(Cc3cc(F)ccc3C#N)c2n1` [Example 151, 2-((6-((1-(2,2-Difluoroethyl)-3-methyl-1H-pyrazol-4-yl)amino)-1H-pyrazolo[3,4-d]pyrimidin-1-yl)methyl)-4-fluorobenzonitrile], the results for the 50% inhibitory concentration (IC50) on JAK2 and on JAK3 were 100 to 1000 nM and below 100 nM, respectively.
The like results for `COc1nn(CC(F)F)cc1Nc1ncc2cnn(Cc3cc(F)ccc3F)c2n1` [Example 152, 1-(2,5-Difluorobenzyl)-N-(1-(2,2-difluoroethyl)-3-methoxy-1H-pyrazol-4-yl)-1H-pyrazolo[3,4-d]pyrimidin-6-amine] were, in that order, 1000 to 10000 nM and below 100 nM.
As to `COc1nn(CC(F)F)cc1Nc1ncc2cnn(Cc3cc(F)ccc3C#N)c2n1` [Example 153, 2-((6-((1-(2,2-Difluoroethyl)-3-methoxy-1H-pyrazol-4-yl)amino)-1H-pyrazolo[3,4-d]pyrimidin-1-yl)methyl)-4-fluorobenzonitrile], the IC50 on JAK2 was 100 to 1000 nM; on JAK3 it was below 100 nM.
The like results for `Cc1c(F)cccc1Cn1ncc2cnc(Nc3cnn(CC(F)F)c3)nc21` [Example 154, N-(1-(2,2-Difluoroethyl)-1H-pyrazol-4-yl)-1-(3-fluoro-2-methylbenzyl)-1H-pyrazolo[3,4-d]pyrimidin-6-amine] were, in that order, 1000 to 10000 nM and 100 to 1000 nM.
For `Fc1cccc(Cn2ncc3cnc(Nc4cnn(CC(F)F)c4)nc32)c1F` [Example 155, 1-(2,3-Difluorobenzyl)-N-(1-(2,2-difluoroethyl)-1H-pyrazol-4-yl)-1H-pyrazolo[3,4-d]pyrimidin-6-amine], the IC50 at JAK2 was 1000 to 10000 nM; on JAK3, below 100 nM.
The like results for `Fc1c(Cl)cccc1Cn1ncc2cnc(Nc3cnn(CC(F)F)c3)nc21` [Example 156, 1-(3-Chloro-2-fluorobenzyl)-N-(1-(2,2-difluoroethyl)-1H-pyrazol-4-yl)-1H-pyrazolo[3,4-d]pyrimidin-6-amine] were, in that order, 1000 to 10000 nM and 100 to 1000 nM.
The like results for `Fc1ccc(F)c(Cn2ncc3cnc(Nc4cnn(CC(F)F)c4)nc32)c1F` [Example 157, N-(1-(2,2-Difluoroethyl)-1H-pyrazol-4-yl)-1-(2,3,6-trifluorobenzyl)-1H-pyrazolo[3,4-d]pyrimidin-6-amine] were, in that order, 100 to 1000 nM and below 100 nM.
Regarding `Cn1cc(Nc2ncc3cnn(Cc4cc(F)cc(F)c4F)c3n2)cn1` [Example 158, N-(1-Methyl-1H-pyrazol-4-yl)-1-(2,3,5-trifluorobenzyl)-1H-pyrazolo[3,4-d]pyrimidin-6-amine], the half-maximal inhibitory concentration (IC50) against JAK2 and against JAK3 was below 100 nM throughout.
Take `COc1ccc(F)c(Cn2ncc3cnc(Nc4cnn(C)c4)nc32)c1F` [Example 159, 1-(2,6-Difluoro-3-methoxybenzyl)-N-(1-methyl-1H-pyrazol-4-yl)-1H-pyrazolo[3,4-d]pyrimidin-6-amine]: the IC50 at JAK2 is 1000 to 10000 nM; against JAK3, below 100 nM.
The like results for `Fc1cccc(F)c1Cn1ncc2cnc(Nc3cnn(CC(F)F)c3)nc21` [Example 160, 1-(2,6-Difluorobenzyl)-N-(1-(2,2-difluoroethyl)-1H-pyrazol-4-yl)-1H-pyrazolo[3,4-d]pyrimidin-6-amine] were, in that order, 1000 to 10000 nM and below 100 nM.
The like results for `FC(F)Cn1cc(Nc2ncc3cnn(Cc4ccccc4C4CC4)c3n2)cn1` [Example 161, 1-(2-Cyclopropylbenzyl)-N-(1-(2,2-difluoroethyl)-1H-pyrazol-4-yl)-1H-pyrazolo[3,4-d]pyrimidin-6-amine] were, in that order, 1000 to 10000 nM and 100 to 1000 nM.
The like results for `Cn1cc(Nc2ncc3cnn(Cc4c(F)c(F)cc(F)c4F)c3n2)cn1` [Example 163, N-(1-Methyl-1H-pyrazol-4-yl)-1-(2,3,5,6-tetrafluorobenzyl)-1H-pyrazolo[3,4-d]pyrimidin-6-amine] were, in that order, 100 to 1000 nM and below 100 nM.
For the compound `Cn1cc(Nc2ncc3cnn(Cc4c(F)cccc4C(F)(F)F)c3n2)cn1` [Example 164, 1-(2-Fluoro-6-(trifluoromethyl)benzyl)-N-(1-methyl-1H-pyrazol-4-yl)-1H-pyrazolo[3,4-d]pyrimidin-6-amine], the 50% inhibitory concentration (IC50) is 1000 to 10000 nM against JAK2 and below 100 nM at JAK3.
`Fc1ccccc1Cn1ncc2cnc(Nc3cnn(CCC4CCOCC4)c3)nc21` [Example 165, 1-(2-Fluorobenzyl)-N-(1-(2-(tetrahydro-2H-pyran-4-yl)ethyl)-1H-pyrazol-4-yl)-1H-pyrazolo[3,4-d]pyrimidin-6-amine]: the IC50 on JAK2 is 1000 to 10000 nM; against JAK3 it was below 100 nM.
The like results for `Cn1cc(Nc2ncc3cnn(Cc4cccc(OCCO)c4)c3n2)cn1` [Example 166, 2-(3-((6-((1-Methyl-1H-pyrazol-4-yl)amino)-1H-pyrazolo[3,4-d]pyrimidin-1-yl)methyl)phenoxy)ethanol] were, in that order, 1000 to 10000 nM and below 100 nM.
